PubChem BioAssay (NCI)
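Five concentrations, 48 hours, 96-well plates. TGI: total growth inhibition.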

Assays:
Experiment in all cases: NCI-60 cell line screen, 48 h
UO-31 renal = test system: UO-31 renal
DLD-1 colon = test system: DLD-1 colon
SK-MEL-2 melanoma = test system: SK-MEL-2 melanoma
LOX IMVI melanoma = test system: LOX IMVI melanoma
SF-295 CNS = test system: SF-295 CNS
LXFL 529 NSCLC = test system: LXFL 529 NSCLC
MDA-N = test system: MDA-N
HOP-18 NSCLC = test system: HOP-18 NSCLC
HOP-62 NSCLC = test system: HOP-62 NSCLC
786-0 renal = test system: 786-0 renal
OVCAR-3 ovarian = test system: OVCAR-3 ovarian
RPMI-8226 leukemia = test system: RPMI-8226 leukemia
NCI-H23 lung = test system: NCI-H23 lung
HCC-2998 colon = test system: HCC-2998 colon
UACC-62 melanoma = test system: UACC-62 melanoma
DU-145 prostate = test system: DU-145 prostate
HCT-116 colon = test system: HCT-116 colon
HCT-15 colon = test system: HCT-15 colon
A498 renal = test system: A498 renal
M14 melanoma = test system: M14 melanoma
KM12 colon = test system: KM12 colon
PC-3 prostate = test system: PC-3 prostate
RXF 393 renal = test system: RXF 393 renal
SR leukemia = test system: SR leukemia
XF 498 CNS = test system: XF 498 CNS
HOP-92 NSCLC = test system: HOP-92 NSCLC
NCI-H460 lung = test system: NCI-H460 lung
ACHN renal = test system: ACHN renal
SNB-75 CNS = test system: SNB-75 CNS
OVCAR-5 ovarian = test system: OVCAR-5 ovarian
IGROV1 ovarian = test system: IGROV1 ovarian
BT-549 breast = test system: BT-549 breast
RXF-631 renal = test system: RXF-631 renal
U251 CNS = test system: U251 CNS
K-562 leukemia = test system: K-562 leukemia
OVCAR-4 ovarian = test system: OVCAR-4 ovarian
CCRF-CEM leukemia = test system: CCRF-CEM leukemia
MDA-MB-231 breast = test system: MDA-MB-231 breast
DMS 114 small cell lung = test system: DMS 114 small cell lung
MALME-3M melanoma = test system: MALME-3M melanoma
CAKI-1 renal = test system: CAKI-1 renal
UACC-257 melanoma = test system: UACC-257 melanoma
OVCAR-8 ovarian = test system: OVCAR-8 ovarian
SNB-19 CNS = test system: SNB-19 CNS
NCI/ADR-RES ovarian = test system: NCI/ADR-RES ovarian
MDA-MB-435 = test system: MDA-MB-435
HL-60(TB) leukemia = test system: HL-60(TB) leukemia
NCI-H226 lung = test system: NCI-H226 lung
HS 578T breast = test system: HS 578T breast
NCI-H522 lung = test system: NCI-H522 lung
MOLT-4 leukemia = test system: MOLT-4 leukemia
SNB-78 CNS = test system: SNB-78 CNS
TK-10 renal = test system: TK-10 renal
COLO 205 colon = test system: COLO 205 colon
SF-539 CNS = test system: SF-539 CNS
A549 NSCLC = test system: A549 NSCLC
SW-620 colon = test system: SW-620 colon
MCF7 breast = test system: MCF7 breast
M19-MEL melanoma = test system: M19-MEL melanoma
SF-268 CNS = test system: SF-268 CNS
EKVX NSCLC = test system: EKVX NSCLC
SN12C renal = test system: SN12C renal
DMS 273 small cell lung = test system: DMS 273 small cell lung
HT29 colon = test system: HT29 colon
SK-MEL-28 melanoma = test system: SK-MEL-28 melanoma
KM20L2 colon = test system: KM20L2 colon
SK-OV-3 ovarian = test system: SK-OV-3 ovarian
SK-MEL-5 melanoma = test system: SK-MEL-5 melanoma

## C/C(=N\N)C(CN(C)C)C(c1ccccc1)c1c(O)c2ccccc2oc1=O (stereo not drawn)
UO-31 renal
  TGI: > 100 µM
DLD-1 colon
  TGI: > 100 µM
SK-MEL-2 melanoma
  TGI: > 100 µM
LOX IMVI melanoma
  TGI: > 100 µM
SF-295 CNS
  TGI: > 100 µM
LXFL 529 NSCLC
  TGI: > 100 µM
MDA-N
  TGI: > 100 µM
HOP-18 NSCLC
  TGI: > 100 µM
HOP-62 NSCLC
  TGI: > 100 µM
786-0 renal
  TGI: > 100 µM
OVCAR-3 ovarian
  TGI: > 100 µM
RPMI-8226 leukemia
  TGI: > 100 µM
NCI-H23 lung
  TGI: > 100 µM
HCC-2998 colon
  TGI: > 100 µM
UACC-62 melanoma
  TGI: > 100 µM
DU-145 prostate
  TGI: > 100 µM
HCT-116 colon
  TGI: > 100 µM
HCT-15 colon
  TGI: > 100 µM
A498 renal
  TGI: > 100 µM
M14 melanoma
  TGI: > 100 µM
KM12 colon
  TGI: > 100 µM
PC-3 prostate
  TGI: > 100 µM
RXF 393 renal
  TGI: > 100 µM
SR leukemia
  TGI: > 100 µM
XF 498 CNS
  TGI: 99.8 µM
HOP-92 NSCLC
  TGI: > 100 µM
NCI-H460 lung
  TGI: > 100 µM
ACHN renal
  TGI: > 100 µM
SNB-75 CNS
  TGI: > 100 µM
OVCAR-5 ovarian
  TGI: > 100 µM
IGROV1 ovarian
  TGI: > 100 µM
BT-549 breast
  TGI: > 100 µM
RXF-631 renal
  TGI: > 100 µM
U251 CNS
  TGI: > 100 µM
K-562 leukemia
  TGI: > 100 µM
OVCAR-4 ovarian
  TGI: > 100 µM
CCRF-CEM leukemia
  TGI: > 100 µM
MDA-MB-231 breast
  TGI: > 100 µM
DMS 114 small cell lung
  TGI: > 100 µM
MALME-3M melanoma
  TGI: > 100 µM
CAKI-1 renal
  TGI: > 100 µM
UACC-257 melanoma
  TGI: > 100 µM
OVCAR-8 ovarian
  TGI: > 100 µM
SNB-19 CNS
  TGI: > 100 µM
NCI/ADR-RES ovarian
  TGI: > 100 µM
MDA-MB-435
  TGI: > 100 µM
HL-60(TB) leukemia
  TGI: > 100 µM
NCI-H226 lung
  TGI: > 100 µM
HS 578T breast
  TGI: > 100 µM
NCI-H522 lung
  TGI: > 100 µM
MOLT-4 leukemia
  TGI: > 100 µM
SNB-78 CNS
  TGI: > 100 µM
TK-10 renal
  TGI: > 100 µM
COLO 205 colon
  TGI: > 100 µM
SF-539 CNS
  TGI: > 100 µM
A549 NSCLC
  TGI: > 100 µM
SW-620 colon
  TGI: > 100 µM
MCF7 breast
  TGI: > 100 µM
M19-MEL melanoma
  TGI: > 100 µM
SF-268 CNS
  TGI: > 100 µM
EKVX NSCLC
  TGI: > 100 µM
SN12C renal
  TGI: > 100 µM
DMS 273 small cell lung
  TGI: > 100 µM
HT29 colon
  TGI: > 100 µM
SK-MEL-28 melanoma
  TGI: > 100 µM
KM20L2 colon
  TGI: > 100 µM
SK-OV-3 ovarian
  TGI: > 100 µM
SK-MEL-5 melanoma
  TGI: > 100 µM
